Experimental data: patent publication US20080207745A1, “Orally-absorbed formulation for paromomycin” (priority 2007, published 2008)
Values joined by “and” are separate entries in the source; they are usually repeats but may differ in a detail not shown here. Identical values can stand only once. Counter-ions that a name gives are not always drawn. Like-named read-outs stand apart in the source and are kept apart here.

Assays:
[1] = In vitro PAR transport across harvested intestinal segments, EasyMount Ussing System: duodenum; format: in vitro ADME; details: rat, 5 mg/ml (~25 mg) paromomycin in mucosal chamber, tissue area 0.5 sq cm
Method: (§1) HEPES buffer was used as the base mucosal and serosal fluid. […] First 5 ml of HEPES buffer was added to each of the two chambers (mucosal and serosal) and allowed to equilibrate for 20 min. […] Aliquots of sample solution were removed from the chamber on other side of the mounted intestinal segment periodically and replaced with an equal volume of fresh warm HEPES buffer.
(§2) These additives, either alone or in combinations, were dissolved in HEPES buffer on percent weight/weight basis of the HEPES medium. Owing to the expected variation in the in-vitro conditions and harvested rat intestinal segments, four replicates were used per experimental condition.
(§3) The apparent permeability coefficients (Papp) were calculated according to:
(§4) Papp=(dQ/dt)/C0×A, where dQ/dt is the linear appearance rate of mass in receiver compartment, C0 is the initial solute concentration in donor compartment, and A is the surface area.
(§5) The drug in post column eluant was derivatized with Dinitrofluorobenzene (DNFB) and monitored at 360 nm. The run time was 30 minutes.

[2] = In vitro PAR transport across harvested intestinal segments, EasyMount Ussing System: colon; format: in vitro ADME; details: rat, 5 mg/ml (~25 mg) paromomycin in mucosal chamber, tissue area 0.5 sq cm
Method: as §1, §2, §3, §4, §5

[3] = historically considered (ref. 6); cited from earlier work
[4] = In vitro PAR transport across harvested intestinal segments, EasyMount Ussing System: jejunum; format: in vitro ADME; details: rat; for Papp at 15 mg/ml: 15 mg/ml PAR
Method: HEPES buffer was used as the base mucosal and serosal fluid. […] First 5 ml of HEPES buffer was added to each of the two chambers (mucosal and serosal) and allowed to equilibrate for 20 min. […] Aliquots of sample solution were removed from the chamber on other side of the mounted intestinal segment periodically and replaced with an equal volume of fresh warm HEPES buffer. […] These additives, either alone or in combinations, were dissolved in HEPES buffer on percent weight/weight basis of the HEPES medium. Owing to the expected variation in the in-vitro conditions and harvested rat intestinal segments, four replicates were used per experimental condition. The apparent permeability coefficients (Papp) were calculated according to: Papp=(dQ/dt)/C0×A, where dQ/dt is the linear appearance rate of mass in receiver compartment, C0 is the initial solute concentration in donor compartment, and A is the surface area. […] The drug in post column eluant was derivatized with Dinitrofluorobenzene (DNFB) and monitored at 360 nm. The run time was 30 minutes.

[5] = Paromomycin in vivo absorption (pharmacokinetic) studies in rats; parameters: species or system Male rats (Sprague Dawley)
Method: Paromomycin was extracted from plasma samples (100 μl volume) with phenylboronic acid solid phase extraction columns, and the bound drug was eluted from the columns with 1% (v/v) formic acid in water. The acid eluates were evaporated under vacuum, and then the dry residues were reconstituted in 100 μl of 1 mM heptafluorobutyric acid (HFBA) in water.

[6] = In vitro PAR transport across harvested intestinal segments, EasyMount Ussing System: ileum; format: in vitro ADME; details: rat, 5 mg/ml (~25 mg) paromomycin in mucosal chamber, tissue area 0.5 sq cm
Method: as §1, §2, §3, §4, §5

[7] = male rats, i.v. 100 mg/kg, Group #1, individual rats, 100 mg/kg
[8] = male, Sprague Dawley, rat, plasma, iv, 100 mg/kg, i.v. 100 mg/kg, Group #1, Mean of 3 rats

- Papp at […], 5 mg/ml [1]: 19.4 nm/s
- Papp at […], 5 mg/ml [2]: 20.7 nm/s
- Papp at 15 mg/ml ([4]; jejunum M-to-S, Sodium Decanoate in mucosal 0.2 mg/ml (equilibrated 20 min before drug)): 14.8 nm/s
- Papp at 15 mg/ml ([4]; jejunum M-to-S, Sodium Decanoate in mucosal 0.5 mg/ml (equilibrated)): 22.2 nm/s
- Papp at 15 mg/ml ([4]; jejunum M-to-S, Sodium Decanoate in mucosal 1 mg/ml (equilibrated)): 44 nm/s
- Papp at 15 mg/ml ([4]; jejunum M-to-S, Sodium Decanoate in mucosal 1 mg/ml (not equilibrated)): 38.3 nm/s
- Papp at 15 mg/ml ([4]; jejunum M-to-S, Sodium Decanoate in serosal 0.2 mg/ml (not equilibrated)): 38.6 nm/s
- Papp at 15 mg/ml ([4]; jejunum M-to-S, Sodium Decanoate in serosal 0.5 mg/ml (not equilibrated)): 35.4 nm/s
- Papp at 15 mg/ml ([4]; jejunum M-to-S, Sodium Decanoate in serosal 1.0 mg/ml (not equilibrated)): 72 nm/s
- Papp at 15 mg/ml ([4]; jejunum M-to-S, no Quinidine, no Sodium Decanoate, tissue area 0.5 sq cm): 26.3 nm/s
- Papp at 15 mg/ml ([4]; jejunum S-to-M, no Quinidine): 27.5 nm/s
- Papp at […], 5 mg/ml ([4]; jejunum, 5 mg/ml (~25 mg) paromomycin in mucosal chamber, tissue area 0.5 sq cm): 39.3 nm/s
- Papp at 15 mg/ml ([4]; with quinidine 0.05 mg/ml in mucosal chamber, jejunum M-to-S, 0.05 mg/ml Quinidine in mucosal): 43.7 nm/s
- Papp at 15 mg/ml ([4]; with quinidine 0.05 mg/ml in mucosal chamber, jejunum S-to-M, 0.05 mg/ml Quinidine in mucosal): 18.5 nm/s
- t1/2 ([5]; male rats, i.v. 100 mg/kg in sterile saline, Group #1, individual rats, 100 mg/kg): 2.70 h and 2.86 h
- V ([5]; male rats, i.v. 100 mg/kg, Group #1, Mean of 3 rats): 5.40 L/kg
- AUC [5, 7]: 55.465 µg·h/mL and 85.847 µg·h/mL
- Cl [5, 7]: 1.80 L/h/kg and 1.16 L/h/kg
- Cmax [5, 7]: 95.651 µg/mL and 101.318 µg/mL
- V [5, 7]: 4.39 L/kg and 7.01 L/kg and 4.80 L/kg
- half-life ([5]; male, Sprague Dawley, rat, plasma, iv, 100 mg/kg, i.v. 100 mg/kg in sterile saline, Group #1, individual rats): 2.85 h
- clearance [5, 8]: 1.34 L/h/kg
- half-life [5, 8]: 2.8 h
- AUC ([5]; male, Sprague Dawley, rat, plasma, iv, 100 mg/kg, i.v. 100 mg/kg, Group #1, Mean of 3 rats, read-out: AUC): 78.3 µg·h/mL
- Cmax ([5]; male, Sprague Dawley, rat, plasma, iv, 100 mg/kg, i.v. 100 mg/kg, Group #1, Mean of 3 rats, read-out: Cmax): 124 µg/mL
- clearance ([5]; male, Sprague Dawley, rat, plasma, iv, 100 mg/kg, i.v. 100 mg/kg, Group #1, individual rats): 1.07 L/h/kg
- AUC ([5]; male, Sprague Dawley, rat, plasma, iv, 100 mg/kg, i.v. 100 mg/kg, Group #1, individual rats, read-out: AUC): 93.5 µg·h/mL
- Cmax ([5]; male, Sprague Dawley, rat, plasma, iv, 100 mg/kg, i.v. 100 mg/kg, Group #1, individual rats, read-out: Cmax): 174 µg/mL
- Papp at […], 5 mg/ml [6]: 22.2 nm/s
Structure (SMILES): NC[C@@H]1O[C@H](O[C@H]2[C@@H](O)[C@H](O[C@@H]3[C@@H](O)[C@H](N)C[C@H](N)[C@H]3O[C@H]3O[C@H](CO)[C@@H](O)[C@H](O)[C@H]3N)O[C@@H]2CO)[C@H](N)[C@@H](O)[C@@H]1O [PAR, Paromomycin sulfate]
- oral bioavailability [3]: close to zero
